Measured values from patent US20040142920A1, “Bipiperidinyl-derivatives and their use as chemokine receptors inhibitors” (priority 2001, published 2004).
Blank lines part the entries; values can stand above or below the molecule they belong to.

Assays:
Human CCR5 [1] = biological target: T1, Human CCR5 (Homo sapiens, UniProt P51681); experiment: CCR5 functional assay - Ca2+ mobilization in CHO K1 transfectants; assay type: cell-based; parameters: expressed in transfected cells
Description: b) CCR5 Functional Assay—Ca^2+ Mobilization
These CCR5 transfectants are used for assessing Ca^2+ mobilization in response to stimulation by the CCR5 ligands MIP-1α, MIP-1β, HCC-1(9-74) or RANTES. For the assay the cells are loaded with a Ca^2+-sensitive fluorochrome (Fluo3 or Fluo4). Ligand concentrations between 0.01-100 nM are used to induce Ca^2+ mobilization which is monitored in a fluorometer with appropriate settings.
To assess the activity of the compounds to be tested, a baseline fluorescence reading is taken after which the compounds at the desired concentration are added to the cells and fluorescence is further recorded for a certain time to assess whether compounds show agonistic effects. Next the agonist is added to the mixture and fluorescence monitored. The inhibition of Ca^2+ flux in the presence of the compounds to be tested is calculated from the inhibition of maximal fluorescence induced by the agonist. IC50 values are calculated from dose-response curves obtained with the compounds. […] For example, compounds of Example 1, 18 and 52 have an IC50 of 10, 9 and 4, respectively.

Human CCR5 [2] = biological target: T1, Human CCR5; experiment: CCR5 membrane binding assay (125-I MIP-1α radioligand)
Description: a) CCR5 Membrane Binding Assay
Human CCR5 is used to generate stable transfectants in CHO K1 cells. Membranes prepared from these CCR5 transfectants are used In a radioligand binding assay using 125-I MIP-1α as a ligand and the compounds of formula I are tested for inhibitory activity. The data are reported as IC50, i.e. the concentration of compound required to achieve 50% inhibition of [I-125]MIP-1α binding.

T1 sequence (P51681 whole entry): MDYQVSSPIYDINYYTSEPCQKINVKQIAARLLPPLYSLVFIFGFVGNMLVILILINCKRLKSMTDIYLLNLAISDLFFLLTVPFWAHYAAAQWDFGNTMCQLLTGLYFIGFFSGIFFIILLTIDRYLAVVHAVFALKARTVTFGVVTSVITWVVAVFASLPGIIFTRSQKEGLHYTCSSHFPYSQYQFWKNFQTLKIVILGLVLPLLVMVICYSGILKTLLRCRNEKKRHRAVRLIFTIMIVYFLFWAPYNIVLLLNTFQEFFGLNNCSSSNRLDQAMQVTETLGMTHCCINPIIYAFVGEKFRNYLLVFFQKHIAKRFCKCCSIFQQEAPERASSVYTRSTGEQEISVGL

IC50 (Human CCR5 [1]; CCR5-transfected CHO K1 cells, agonist MIP-1α, MIP-1β, HCC-1(9-74) or RANTES, Fluo3 or Fluo4, read-out: IC50, inhibition of Ca2+ flux): 9 nM
SMILES: CC1(N2CCC(N(c3ccccc3)c3ccccc3)CC2)CCN(C(=O)c2c(Cl)c[n+]([O-])cc2Cl)CC1 [Example 18]

SMILES: Cc1cccc(C)c1C(=O)N1CCC(C)(N2CCC(N(Cc3ccccc3)c3ccc(Br)cc3)CC2)CC1 [Example 52, {4-[Benzyl-(4-bromo-phenyl)amino]-4′-methyl-[1,4′]bipiperidinyl-1′-yl}-(2,6-dimethyl-phenyl)-methanone]
IC50 (Human CCR5 [1]): 4 nM

SMILES: Cc1nc(CN(c2ccccc2)C2CCN(C3(C)CCN(C(=O)c4c(C)cc[n+]([O-])c4C)CC3)CC2)cs1 [Example 83, (2,4-Dimethyl-1-oxy-pyridin-3-yl)-{4′-methyl-4-[(2-methyl-thiazol-4-ylmethyl)-phenyl-amino]-[1,4′]bipiperidinyl-1′-yl}-methanone]
IC50 (Human CCR5 [2]): 2 to 3 nM
